Experiments:
BRG-1 = biological target: T1, BRG-1 (Homo sapiens, UniProt P51532); assay: ATPase catalytic activity assay (ADP-Glo), BRG-1; type: biochemical; settings: Table 10, read-out: BRG1 IC50
T1 construct: made in house; host or cells: High Five insect cells
Procedure: The ATPase catalytic activity of BRM or BRG-1 was measured by an in vitro biochemical assay using ADP-Glo™ (Promega, V9102). The ADP-Glo™ kinase assay is performed in two steps once the reaction is complete. The first step is to deplete any unconsumed ATP in the reaction. The second step is to convert the reaction product ADP to ATP, which will be utilized by the luciferase to generate luminesce and be detected by a luminescence reader, such as Envision.
Then, following addition of 5 μL of ADP-Glo™ Reagent provided in the kit, the reaction incubates at room temperature for 40 minutes. Then, 10 μL of Kinase Detection Reagent provided in the kit is added to convert ADP to ATP, and the reaction incubates at room temperature for 60 minutes. Finally, luminescence measurement is collected with a plate-reading luminometer, such as Envision.

[1] = system: BRM-dependent transcription (BRG1 mutant lung cancer cell line A549); assay: BRM-dependent transcription, MMTV luciferase reporter in BRG1 mutant A549 cells; type: cell-based; settings: Table 11; for IC50: A549-MMTV luciferase reporter, dexamethasone induced, 6 hours; for Ratio (MDA-MMTV IC50 (μM) divided by A549-MMTV IC50 (μM)): MMTV luciferase reporter cell lines, selectivity BRG1/BRM
Method in brief: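 Compound dose series added to dexamethasone-stimulated A549 cells (BRG1 mutant) carrying a BRM-dependent mouse mammary tumor virus luciferase reporter; luminescence measured at 6 h post-stimulation.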

T1 sequence (P51532 whole entry): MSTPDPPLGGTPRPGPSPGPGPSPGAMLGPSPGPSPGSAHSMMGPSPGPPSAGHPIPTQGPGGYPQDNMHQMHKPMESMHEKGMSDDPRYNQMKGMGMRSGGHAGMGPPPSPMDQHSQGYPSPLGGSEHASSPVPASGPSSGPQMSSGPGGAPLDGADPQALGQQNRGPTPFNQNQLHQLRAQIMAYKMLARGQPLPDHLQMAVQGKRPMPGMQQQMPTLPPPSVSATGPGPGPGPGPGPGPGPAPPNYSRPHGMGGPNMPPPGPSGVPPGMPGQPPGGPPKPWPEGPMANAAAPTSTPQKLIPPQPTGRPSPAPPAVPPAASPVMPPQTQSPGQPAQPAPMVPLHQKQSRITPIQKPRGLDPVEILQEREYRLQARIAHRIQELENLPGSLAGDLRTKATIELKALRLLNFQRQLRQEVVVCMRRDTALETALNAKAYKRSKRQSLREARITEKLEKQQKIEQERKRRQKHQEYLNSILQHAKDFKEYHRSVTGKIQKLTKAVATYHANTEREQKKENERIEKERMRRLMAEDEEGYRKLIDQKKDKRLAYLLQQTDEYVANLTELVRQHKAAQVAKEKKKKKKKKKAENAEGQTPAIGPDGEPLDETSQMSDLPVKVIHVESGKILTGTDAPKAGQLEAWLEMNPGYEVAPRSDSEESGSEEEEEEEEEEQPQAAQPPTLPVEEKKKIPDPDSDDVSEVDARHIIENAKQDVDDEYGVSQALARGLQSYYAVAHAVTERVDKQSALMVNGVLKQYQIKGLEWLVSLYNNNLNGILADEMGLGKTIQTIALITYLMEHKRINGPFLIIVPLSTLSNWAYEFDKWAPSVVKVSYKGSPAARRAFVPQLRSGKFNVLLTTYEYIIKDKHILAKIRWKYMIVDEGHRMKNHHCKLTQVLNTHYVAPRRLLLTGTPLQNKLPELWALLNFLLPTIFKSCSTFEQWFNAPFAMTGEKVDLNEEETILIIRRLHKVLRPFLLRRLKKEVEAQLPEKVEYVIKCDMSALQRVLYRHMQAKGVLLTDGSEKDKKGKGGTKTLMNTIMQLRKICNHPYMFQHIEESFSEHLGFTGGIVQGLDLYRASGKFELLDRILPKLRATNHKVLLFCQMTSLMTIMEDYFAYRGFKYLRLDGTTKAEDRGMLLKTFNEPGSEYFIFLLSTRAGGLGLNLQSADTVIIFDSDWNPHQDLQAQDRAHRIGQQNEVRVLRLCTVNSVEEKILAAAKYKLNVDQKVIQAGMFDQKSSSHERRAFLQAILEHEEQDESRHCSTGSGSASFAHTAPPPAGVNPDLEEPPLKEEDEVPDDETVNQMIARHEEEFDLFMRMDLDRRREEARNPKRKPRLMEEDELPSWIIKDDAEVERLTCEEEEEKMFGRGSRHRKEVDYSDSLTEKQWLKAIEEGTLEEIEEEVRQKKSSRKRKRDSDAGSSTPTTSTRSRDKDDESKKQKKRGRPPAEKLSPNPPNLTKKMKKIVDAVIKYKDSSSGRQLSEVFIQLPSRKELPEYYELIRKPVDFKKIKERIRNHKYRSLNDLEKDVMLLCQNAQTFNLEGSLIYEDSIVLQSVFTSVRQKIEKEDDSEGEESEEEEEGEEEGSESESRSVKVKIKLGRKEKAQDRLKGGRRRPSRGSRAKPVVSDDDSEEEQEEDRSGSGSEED

IC50 (BRG-1) | IC50 ([1]; Homo sapiens, A549, 6 h) | Ratio (MDA-MMTV IC50 (μM) divided by A549-MMTV IC50 (μM)) [1] | IC50 [1] | Structure (SMILES)
0.206 µM |  |  |  | O=C(NCc1cc2cc(-c3cccc(C4CC4)n3)ccc2cn1)c1cc(F)c2c(c1)S(=O)(=O)[C@@H](F)CCO2 [Compound 291]
0.0889 µM |  |  |  | O=C(NCc1cc2nc(N3CCOc4ccc(OC(F)F)nc43)ccc2cn1)c1cc(F)c2c(c1)S(=O)(=O)[C@@H](F)CCO2 [Compound 126]
0.0762 µM |  |  |  | C[C@H]1CCN1c1cnc2c(c1)OCCN2c1ccc2cnc(CNC(=O)c3cc(F)c4c(c3)S(=O)(=O)[C@@H](F)CCO4)cc2n1 [Compound 233]
0.103 µM |  |  |  | O=C(NCc1cc2nc(N3CCOc4ccc([C@@H]5C[C@@H]5F)nc43)ccc2cn1)c1cc(F)c2c(c1)S(=O)(=O)[C@@H](F)COC2 [Compound 209]
0.0906 µM |  |  |  | C[C@@H]1C[C@H](C)N1c1cnc2c(c1)OCCN2c1ccc2cnc(CNC(=O)c3cc(F)c4c(c3)S(=O)(=O)[C@@H](F)CCO4)cc2n1 [Compound 218]
1.35 µM |  |  |  | COc1cc(C(=O)NCc2cc3nc(-c4ccc(OC(F)F)c(C5CC5)n4)ccc3cn2)cc2c1COC[C@H](F)S2(=O)=O [Compound 329]
0.0179 µM |  |  |  | O=C(NCc1cc2nc(N3CCOc4cc(N5CC(F)C5)cnc43)ccc2cn1)c1ccc2c(c1)S(=O)(=O)[C@@H](F)CCOC2 [Compound 7]
4.13 µM |  |  |  | C#Cc1cc(C(=O)NCc2cc3nc(-c4cccc(N5C[C@@H](C)O[C@@H](C)C5)n4)ccc3cn2)cc2c1OCC[C@H](F)S2(=O)=O [Compound 314]
0.123 µM |  |  |  | O=C(NCc1cc2nc(-c3cccc([C@H]4CC4(F)F)n3)ccc2cn1)c1cc(F)c2c(c1)S(=O)(=O)[C@@H](F)COC2 [Compound 128]
0.0586 µM |  |  |  | CCOc1ccnc2c1OCCN2c1ccc2cnc(CNC(=O)c3cc(Cl)c4c(c3)S(=O)(=O)[C@@H](F)CCO4)cc2n1 [Compound 94]
0.351 µM |  |  |  | CCOc1cccc(-c2ccc3cnc(CNC(=O)c4cc(F)c5c(c4)S(=O)(=O)[C@@H](F)CCO5)cc3n2)n1 [Compound 330]
 | 0.0169 µM | 33.18 |  | CCOc1nc(C(F)F)ccc1-c1ccc2cnc(CNC(=O)c3cc(Cl)c4c(c3)S(=O)(=O)[C@@H](F)CCO4)cc2n1 [Compound 331, (R)-9-chloro-N-((2-(6-(difluoromethyl)-2-ethoxypyridin-3-yl)-1,6-naphthyridin-7-yl)methyl)-4-fluoro-3,4-dihydro-2H-benzo[b][1,4]oxathiepine-7-carboxamide 5,5-dioxide]
 |  | 22.68 | 0.0124 µM | O=C(NCc1cc2nc(-c3ccc(OC(F)F)c(C4CC4)n3)ccc2cn1)c1cc(Cl)c2c(c1)S(=O)(=O)[C@@H](F)CCO2 [Compound 357]
 |  | 29.42 | 0.0041 µM | C[C@@H]1CCN1c1cnc2c(-c3ccc4cnc(CNC(=O)c5cc(F)c6c(c5)S(=O)(=O)[C@@H](F)COC6)cc4n3)cccc2c1 [Compound 470]
 | 0.0138 µM | 25.74 |  | CC(C)c1ccc(-c2ccc3cnc(CNC(=O)c4cc(F)c5c(c4)S(=O)(=O)[C@@H](F)CCO5)cc3n2)nc1C1CC1 [Compound 396]
 | 0.0021 µM | 24.21 |  | O=C(NCc1cc2nc(-c3ccc([C@@H](F)CF)nc3OC(F)F)ccc2cn1)c1cc(F)c2c(c1)S(=O)(=O)[C@@H](F)CCO2 [Compound 391]
 | 0.0076 µM | 21.84 |  | C[C@@H]1CN(c2cccc(-c3ccc4cnc(CNC(=O)c5cc(C#N)c6c(c5)S(=O)(=O)[C@@H](F)CCO6)cc4n3)n2)C[C@H](C)O1 [Compound 372]
 | 0.0153 µM | 27.40 |  | CCOc1cccc(-c2ccc3cnc(CNC(=O)c4cc(F)c5c(c4)S(=O)(=O)[C@@H](F)CCO5)cc3n2)n1 [Compound 358]
 | 0.0241 µM | 29.97 |  | COc1nc([C@@H](C)C(F)F)ccc1-c1ccc2cnc(CNC(=O)c3cc(F)c4c(c3)S(=O)(=O)[C@@H](F)CCO4)cc2n1 [Compound 366]
 | 0.0022 µM | 17.34 |  | COc1nc([C@@](C)(F)C(F)F)ccc1-c1ccc2cnc(CNC(=O)c3cc(F)c4c(c3)S(=O)(=O)[C@@H](F)CCOC4)cc2n1 [Compound 368]
 | 0.0152 µM | 27.83 |  | C=C(F)c1cc(C(=O)NCc2cc3nc(-c4cccc(N5C[C@@H](C)O[C@@H](C)C5)n4)ccc3cn2)cc2c1OCC[C@H](F)S2(=O)=O [Compound 443]

The remaining lines, values behind:

Structure (SMILES) | IC50 (BRG-1) | IC50 ([1]; Homo sapiens, A549, 6 h) | Ratio (MDA-MMTV IC50 (μM) divided by A549-MMTV IC50 (μM)) [1] | IC50 [1]
Cc1cnc2c(c1)OCCN2c1ccc2cnc(CNC(=O)c3cc(F)c4c(c3)S(=O)(=O)[C@@H](F)COC4)cc2n1 [Compound 6, (R)-2,6-difluoro-N-((2-(7-methyl-2,3-dihydro-4H-pyrido[3,2-b][1,4]oxazin-4-yl)-1,6-naphthyridin-7-yl)methyl)-2,3-dihydro-5H-benzo[e][1,4]oxathiepine-8-carboxamide 1,1-dioxide] | 0.0213 µM |  |  | 
O=C(NCc1cc2cc(-c3cccc(C(F)F)n3)ccc2cn1)c1cc(F)c2c(c1)S(=O)(=O)[C@@H](F)COC2 [Compound 232] | 0.14 µM |  |  | 
COc1nc([C@@H](C)F)ccc1-c1ccc2cnc(CNC(=O)c3cc(Cl)c4c(c3)S(=O)(=O)[C@@H](F)COC4)cc2n1 [Compound 242] | 0.246 µM |  |  | 
COc1nc(C(F)(F)F)ccc1-c1ccc2cnc(CNC(=O)c3cc(F)c4c(c3)S(=O)(=O)[C@@H](F)COC4)cc2n1 [Compound 127] | 0.0725 µM |  |  | 
O=C(NCc1cc2nc(N3CCOc4c(N5CC6(CC6)C5)ccnc43)ccc2cn1)c1cc(F)c2c(c1)S(=O)(=O)[C@@H](F)COC2 [Compound 212] | 0.136 µM |  |  | 
COc1nc(C(F)F)ccc1-c1ccc2cnc(CNC(=O)c3cc(C(F)F)c4c(c3)S(=O)(=O)[C@@H](F)COC4)cc2n1 [Compound 234] | 0.083 µM |  |  | 
O=C(NCc1cc2nc(N3CCOc4ccc(C(F)F)nc43)ccc2cn1)c1cc(Cl)c2c(c1)S(=O)(=O)[C@@H](F)COC2 [Compound 208] | 0.239 µM |  |  | 
CCOc1nc(C(F)F)ncc1-c1ccc2cnc(CNC(=O)c3cc(Cl)c4c(c3)S(=O)(=O)[C@@H](F)COC4)cc2n1 [Compound 505] |  | 0.0106 µM | 21.63 | 
O=C(NCc1cc2nc(-c3cccc4c3OC(F)(F)O4)ccc2cn1)c1cc(F)c2c(c1)S(=O)(=O)[C@@H](F)COC2 [Compound 458] |  | 0.0156 µM | 23.65 | 
CCOc1nc(C(C)(F)F)ccc1-c1ccc2cnc(CNC(=O)c3cc(F)c4c(c3)S(=O)(=O)[C@@H](F)COC4)cc2n1 [Compound 509] |  |  | 25.33 | 0.0202 µM
CCOc1nn(-c2ccc3cnc(CNC(=O)c4cc(Cl)c5c(c4)S(=O)(=O)[C@@H](F)COC5)cc3n2)cc1F [Compound 472] |  | 0.011 µM | 39.75 | 
O=C(NCc1cc2nc(-n3cc(F)c(OC(F)F)n3)ccc2cn1)c1cc(C(F)F)c2c(c1)S(=O)(=O)[C@@H](F)COC2 [Compound 514, (2R)—N-[[2-[3-(difluoromethoxy)-4-fluoro-pyrazol-1-yl]-1,6-naphthyridin-7-yl]methyl]-6-(difluoromethyl)-2-fluoro-1,1-dioxo-3,5-dihydro-2H-4,1benzoxathiepine-8-carboxamide] |  | 0.021 µM | 32.01 | 
[2H]C([2H])([2H])Oc1ccc(-c2ccc3cnc(CNC(=O)c4cc(C(F)F)c5c(c4)S(=O)(=O)[C@@H](F)COC5)cc3n2)nc1[C@H]1CC1(F)F [Compound 459] |  | 0.0153 µM | 27.87 | 
[2H]C([2H])([2H])C([2H])([2H])Oc1nc([C@@H](F)CF)ccc1-c1ccc2cnc(CNC(=O)c3cc(Cl)c4c(c3)S(=O)(=O)[C@@H](F)CCO4)cc2n1 [Compound 454] |  | 0.0142 µM | 29.67 | 
CCOc1nc(C(F)F)ncc1-c1ccc2cnc(CNC(=O)c3cc(C(F)F)c4c(c3)S(=O)(=O)[C@@H](F)COC4)cc2n1 [Compound 510] |  | 0.0146 µM | 22.06 | 
O=C(NCc1cc2nc(-c3cccc(OC(F)F)c3F)ccc2cn1)c1cc(Cl)c2c(c1)S(=O)(=O)[C@@H](F)COC2 [Compound 444] |  | 0.0226 µM | 24.79 | 
COc1nc([C@@H](F)CF)ccc1-c1ccc2cnc(CNC(=O)c3cc(Cl)c4c(c3)S(=O)(=O)[C@@H](F)COC4)cc2n1 [Compound 381] |  | 0.0068 µM | 29.06 | 
[2H]C([2H])([2H])C([2H])([2H])Oc1nc(C(F)F)ccc1-c1ccc2cnc(CNC(=O)c3cc(Cl)c4c(c3)S(=O)(=O)[C@@H](F)COC4)cc2n1 [Compound 495] |  | 0.0151 µM | 32.03 | 
[2H]C([2H])([2H])C([2H])([2H])Oc1ccc(-c2ccc3cnc(CNC(=O)c4cc(F)c5c(c4)S(=O)(=O)[C@@H](F)COC5)cc3n2)nc1[C@@H]1CC1(F)F [Compound 464] |  | 0.0071 µM | 39.23 | 
[2H]C([2H])([2H])Oc1ccc(-c2ccc3cnc(CNC(=O)c4cc(Br)c5c(c4)S(=O)(=O)[C@@H](F)COC5)cc3n2)nc1[C@H]1CC1(F)F [Compound 493] |  | 0.0194 µM | 49.65 | 

Reference: patent publication US12139487B2, “Compounds and uses thereof” (Foghorn Therapeutics Inc., priority 2022, dated 2024)
